The results in this text go back to US8658646B2, “Pyrrolopyrazine kinase inhibitors” (Hoffmann-LaRoche Inc., priority 2011, dated 2014).

The target in the test is T1, recombinant human SYK360-635 (Homo sapiens, UniProt P43405).
T1 construct: made in house
The experiment in a line: Determination of IC50 of Spleen Tyrosine Kinase (SYK) inhibition, 33P ATP filtration assay. Format: biochemical. As to conditions: SYK aa 360-635 0.5 nM; ATP 20 μM, peptide 5 μM, 0.1% BSA; read-out: SYK_ENZYME_FILTRATION/v1, BSA.
Take `COc1ccc2c(c1)c(-c1cnc3[nH]cc(C(=O)N[C@@H]4CCOC[C@@H]4N)c3n1)nn2C` [Example I-290, 2-(5-Methoxy-1-methyl-1H-indazol-3-yl)-5H-pyrrolo[2,3-b]pyrazine-7-carboxylic acid ((3R,4R)-3-amino-tetrahydro-pyran-4-yl)-amide]: the IC50 came out at 2130 nM.
The result for `COc1ccc2c(c1)c(-c1cnc3[nH]cc(C(=O)N[C@@H]4CCCC[C@@H]4N)c3n1)nn2C` [Example I-291, 2-(5-Methoxy-1-methyl-1H-indazol-3-yl)-5H-pyrrolo[2,3-b]pyrazine-7-carboxylic acid ((1R,2S)-2-amino-cyclohexyl)-amide] reads 1000 nM; that for `CC(C)NC(=O)c1c[nH]c2ncc(-c3c4c(n(C)[n+]3[O-])CCCC4)nc12` [Example I-293, 2-(1-Methyl-2-oxy-4,5,6,7-tetrahydro-1H-indazol-3-yl)-5H-pyrrolo[2,3-b]pyrazine-7-carboxylic acid isopropylamide], 2710 nM; that for `Cn1c2c(c(-c3cnc4[nH]cc(C(=O)NC(C)(C)C)c4n3)[n+]1[O-])CCCC2` [Example I-294, 2-(1-Methyl-2-oxy-4,5,6,7-tetrahydro-1H-indazol-3-yl)-5H-pyrrolo[2,3-b]pyrazine-7-carboxylic acid tert-butylamide], 4190 nM.
The result for `Cn1nc(-c2cnc3[nH]cc(C(=O)NC(C)(C)C)c3n2)c2c1CCCC2` [Example I-295, 2-(1-Methyl-4,5,6,7-tetrahydro-1H-indazol-3-yl)-5H-pyrrolo[2,3-b]pyrazine-7-carboxylic acid tert-butylamide] reads 12.6 nM; that for `CC(C)(C)NC(=O)c1c[nH]c2ncc(-c3nn(CCC4OCCCO4)c4ccc(OC(F)F)cc34)nc12` [Example I-297, 2-[5-Difluoromethoxy-1-(2-[1,3]dioxan-2-yl-ethyl)-1H-indazol-3-yl]-5H-pyrrolo[2,3-b]pyrazine-7-carboxylic acid tert-butylamide], 28.1 nM; that for `CC(C)(C)NC(=O)c1c[nH]c2ncc(-c3nn(CCCO)c4ccc(OC(F)F)cc34)nc12` [Example I-298, 2-[5-Difluoromethoxy-1-(3-hydroxy-propyl)-1H-indazol-3-yl]-5H-pyrrolo[2,3-b]pyrazine-7-carboxylic acid tert-butylamide], 3.78 nM.
In the case of `CC(C)(C)NC(=O)c1c[nH]c2ncc(-c3nn(CCCN4CC(O)C4)c4ccc(OC(F)F)cc34)nc12` [Example I-300, 2-{5-Difluoromethoxy-1-[3-(3-hydroxy-azetidin-1-yl)-propyl]-1H-indazol-3-yl}-5H-pyrrolo[2,3-b]pyrazine-7-carboxylic acid tert-butylamide] it was 3.1 nM; in that of `CC(C)(C)NC(=O)c1c[nH]c2ncc(-c3nn(CCC4CNC4)c4cc(F)ccc34)nc12` [Example I-302, 2-[1-(2-Azetidin-3-yl-ethyl)-6-fluoro-1H-indazol-3-yl]-5H-pyrrolo[2,3-b]pyrazine-7-carboxylic acid tert-butylamide], 8.5 nM; in that of `Cc1cc2cccc(-c3cnc4[nH]cc(C(=O)NC(C)(C)C)c4n3)c2[nH]1` [Example I-303, 2-(2-Methyl-1H-indol-7-yl)-5H-pyrrolo[2,3-b]pyrazine-7-carboxylic acid tert-butylamide], 64.1 nM.
Turning to `CC(C)(C)NC(=O)c1c[nH]c2ncc(-c3cccc4cc[nH]c34)nc12` [Example I-304, 2-(1H-Indol-7-yl)-5H-pyrrolo[2,3-b]pyrazine-7-carboxylic acid tert-butylamide], the IC50 stood at 7.35 nM.
Take `CC(C)NC(=O)c1c[nH]c2ncc(-c3n[nH]c4cc(Cl)ccc34)nc12` [Example I-306, 2-(6-Chloro-1H-indazol-3-yl)-5H-pyrrolo[2,3-b]pyrazine-7-carboxylic acid isopropylamide]: the IC50 was determined as 7.25 nM.
In the case of `CCn1nc(-c2cnc3[nH]cc(C(=O)NC(C)C)c3n2)c2ccc(Cl)cc21` [Example I-307, 2-(6-Chloro-1-ethyl-1H-indazol-3-yl)-5H-pyrrolo[2,3-b]pyrazine-7-carboxylic acid isopropylamide] it was 32.6 nM; in that of `CC(C)NC(=O)c1c[nH]c2ncc(-c3nn(Cc4ccccc4)c4cc(Cl)ccc34)nc12` [Example I-308, 2-(1-Benzyl-6-chloro-1H-indazol-3-yl)-5H-pyrrolo[2,3-b]pyrazine-7-carboxylic acid isopropylamide], 860 nM.
On to `NC(=O)c1c[nH]c2ncc(-c3nn(CC(=O)N4CCOCC4)c4cc(F)ccc34)nc12` [Example I-314, 2-[6-Fluoro-1-(2-morpholin-4-yl-2-oxo-ethyl)-1H-indazol-3-yl]-5H-pyrrolo[2,3-b]pyrazine-7-carboxylic acid amide], for which the IC50 worked out at 155 nM.
As for `Cn1nc(-c2cnc3[nH]cc(C(=O)NC(CO)CO)c3n2)c2ccc(Cl)cc21` [Example I-316, 2-(6-Chloro-1-methyl-1H-indazol-3-yl)-5H-pyrrolo[2,3-b]pyrazine-7-carboxylic acid (2-hydroxy-1-hydroxymethyl-ethyl)-amide], the IC50 amounted to 14.6 nM.
Regarding `Cn1nc(-c2cnc3[nH]cc(C(=O)NCC4CC4)c3n2)c2ccc(Cl)cc21` [Example I-317, 2-(6-Chloro-1-methyl-1H-indazol-3-yl)-5H-pyrrolo[2,3-b]pyrazine-7-carboxylic acid cyclopropylmethyl-amide], the IC50 stood at 11.3 nM.
Consider `CC(C)(CO)NC(=O)c1c[nH]c2ncc(-n3ncc4cc(Cl)ccc43)nc12` [Example I-318, 2-(5-Chloro-indazol-1-yl)-5H-pyrrolo[2,3-b]pyrazine-7-carboxylic acid (2-hydroxy-1,1-dimethyl-ethyl)-amide], for which the IC50 worked out at 56.8 nM.
The result for `Cc1nn(-c2cnc3[nH]cc(C(=O)NC(C)(C)CO)c3n2)c2ccc(Cl)cc12` [Example I-319, 2-(5-Chloro-3-methyl-indazol-1-yl)-5H-pyrrolo[2,3-b]pyrazine-7 carboxylic acid (2-hydroxy-1,1-dimethyl-ethyl)-amide] reads 34.6 nM; that for `CC(C)(CO)NC(=O)c1c[nH]c2ncc(-n3ncc4cc(F)ccc43)nc12` [Example I-320, 2-(5-Fluoro-indazol-1-yl)-5H-pyrrolo[2,3-b]pyrazine-7-carboxylic acid (2-hydroxy-1,1-dimethyl-ethyl)-amide], 56.7 nM.
Regarding `CC(C)(CO)NC(=O)c1c[nH]c2ncc(-n3ncc4ccccc43)nc12` [Example I-321, 2-Indazol-1-yl-5H-pyrrolo[2,3-b]pyrazine-7-carboxylic acid (2-hydroxy-1,1-dimethyl-ethyl)-amide], the IC50 is 150 nM.
As to `COc1ccc2c(cnn2-c2cnc3[nH]cc(C(=O)NC(C)(C)C)c3n2)c1` [Example I-323, 2-(5-Methoxy-indazol-1-yl)-5H-pyrrolo[2,3-b]pyrazine-7-carboxylic acid tert-butylamide], the IC50 worked out at 25.6 nM.
Turning to `CC(C)(C)NC(=O)c1c[nH]c2ncc(-n3ncc4cc(Cl)ccc43)nc12` [Example I-324, 2-(5-Chloro-indazol-1-yl)-5H-pyrrolo[2,3-b]pyrazine-7-carboxylic acid tert-butylamide], the IC50 was 108 nM.
Regarding `CC(C)(C)NC(=O)c1c[nH]c2ncc(-n3ncc4cc(OC(F)F)ccc43)nc12` [Example I-325, 2-(5-Difluoromethoxy-indazol-1-yl)-5H-pyrrolo[2,3-b]pyrazine-7-carboxylic acid tert-butylamide], the IC50 was determined as 37.6 nM.
The result for `CC(C)(C)NC(=O)c1c[nH]c2ncc(-n3ncc4cc(F)ccc43)nc12` [Example I-326, 2-(5-Fluoro-indazol-1-yl)-5H-pyrrolo[2,3-b]pyrazine-7-carboxylic acid tert-butylamide] reads 43.4 nM; that for `CC(C)(C)NC(=O)c1c[nH]c2ncc(-n3ncc4cc(F)c(F)cc43)nc12` [Example I-327, 2-(5,6-Difluoro-indazol-1-yl)-5H-pyrrolo[2,3-b]pyrazine-7-carboxylic acid tert-butylamide], 221 nM; that for `CC(C)(C)NC(=O)c1c[nH]c2ncc(-c3nccc4cc[nH]c34)nc12` [Example I-328, 2-(1H-Pyrrolo[2,3-c]pyridin-7-yl)-5H-pyrrolo[2,3-b]pyrazine-7 carboxylic acid tert-butylamide], 970 nM.
Consider `CC(C)(C)NC(=O)c1c[nH]c2ncc(-n3ncc4ccc(Cl)cc43)nc12` [Example I-329, 2-(6-Chloro-indazol-1-yl)-5H-pyrrolo[2,3-b]pyrazine-7-carboxylic acid tert-butylamide], for which the IC50 stood at 82.2 nM.
The result for `CC(C)(C)NC(=O)c1c[nH]c2ncc(-n3ncc4ccc(C(F)(F)F)cc43)nc12` [Example I-330, 2-(6-Trifluoromethyl-indazol-1-yl)-5H-pyrrolo[2,3-b]pyrazine-7-carboxylic acid tert-butylamide] reads 988 nM; that for `Cc1ccc2cnn(-c3cnc4[nH]cc(C(=O)NC(C)(C)C)c4n3)c2c1` [Example I-331, 2-(6-Methyl-indazol-1-yl)-5H-pyrrolo[2,3-b]pyrazine-7-carboxylic acid tert-butylamide], 69.5 nM; that for `CC(C)(C)NC(=O)c1c[nH]c2ncc(-n3ncc4ccc(F)cc43)nc12` [Example I-332, 2-(6-Fluoro-indazol-1-yl)-5H-pyrrolo[2,3-b]pyrazine-7-carboxylic acid tert-butylamide], 107 nM.
Regarding `Cc1ccc2c(cnn2-c2cnc3[nH]cc(C(=O)NC(C)(C)C)c3n2)c1` [Example I-333, 2-(5-Methyl-indazol-1-yl)-5H-pyrrolo[2,3-b]pyrazine-7-carboxylic acid tert-butylamide], the IC50 amounted to 63.9 nM.
In the case of `CC(C)(C)NC(=O)c1c[nH]c2ncc(-n3nc(C(F)(F)F)c4c3CCC4)nc12` [Example I-334, 2-(3-Trifluoromethyl-5,6-dihydro-4H-cyclopentapyrazol-1-yl)-5H-pyrrolo[2,3-b]pyrazine-7-carboxylic acid tert-butylamide] it was 1840 nM; in that of `CC(C)(C)NC(=O)c1c[nH]c2ncc(-n3nc(Cl)c4ccccc43)nc12` [Example I-335, 2-(3-Chloro-indazol-1-yl)-5H-pyrrolo[2,3-b]pyrazine-7-carboxylic acid tert-butylamide], 61.6 nM.
